Patent US11491120B2, “Pharmacological prophylactics against stress-induced affective disorders in females” (The Trustees of Columbia University in the City of New York, priority 2017, dated 2022)
Entries after “also recorded” stand apart in the source; their conditions may differ.

Tested on: female 129S6/SvEv mice
Experiment: Forced swim test (FST), immobility time, after stress
[1] = 0.025 mg/kg, 1 week prophylactic drug
[2] = 0.025 mg/kg, 1 week prophylactic drug, learned helplessness stress
[3] = 0.025 mg/kg, 3 day prophylactic drug
[4] = 0.075 mg/kg, 1 week prophylactic drug
[5] = 0.1 mg/kg, 1 week prophylactic drug
[6] = 0.3 mg/kg, 1 week prophylactic drug
[7] = 2.5 mg/kg, 1 week prophylactic drug
[8] = 10 mg/kg, 1 week prophylactic drug
[9] = Forced Swim Test Day 1, Dunnett test Sal vs. drug (0.025), 1 week prophylactic drug
[10] = Forced Swim Test Day 1, Dunnett test Sal vs. drug (0.075), 1 week prophylactic drug
[11] = Forced Swim Test Day 1, Dunnett test Sal vs. drug (0.1), 1 week prophylactic drug

Compound: N[C@@]1(c2ccccc2Cl)CCC[C@@H](O)C1=O [(2R,6R)-HNK, (2R,6R)-hydroxynorketamine]
- * (significance), Sal vs. drug, Dunnett test: Immobility Time (min 1-6), Forced Swim Test Day 2 [1]: *** (*** p<0.0001)
- * (significance), Sal vs. drug, Dunnett test: Immobility Time (min 4), Forced Swim Test Day 2 [1]: * (* p<0.05)
- * (significance), Sal vs. drug, Dunnett test: Immobility Time (min 5), Forced Swim Test Day 2 [1]: * (* p<0.05)
- * (significance), Sal vs. drug, Dunnett test: Immobility Time Average (min 3-6), Forced Swim Test Day 2 [1]: * (* p<0.05)
- p, Sal vs. drug, Dunnett test: Immobility Time (min 1), Forced Swim Test Day 2 [1]: 0.0833
- p, Sal vs. drug, Dunnett test: Immobility Time (min 1-6), Forced Swim Test Day 2 [1]: 0.0001
- p, Sal vs. drug, Dunnett test: Immobility Time (min 2), Forced Swim Test Day 2 [1]: 0.5867
- p, Sal vs. drug, Dunnett test: Immobility Time (min 4), Forced Swim Test Day 2 [1]: 0.0383
- p, Sal vs. drug, Dunnett test: Immobility Time (min 5), Forced Swim Test Day 2 [1]: 0.0346
- p, Sal vs. drug, Dunnett test: Immobility Time (min 6), Forced Swim Test Day 2 [1]: 0.2356
- p, Sal vs. drug, Dunnett test: Immobility Time Average (min 3-6), Forced Swim Test Day 2 [1]: 0.0229
- * (significance), Sal vs. drug, Fisher's PLSD: Immobility Time Average (min 3-6), Forced Swim Test Day 2 [2]: *** (*** p<0.0001)
- P, Sal vs. drug, Fisher's PLSD: Immobility Time Average (min 3-6), Forced Swim Test Day 2 [2]: <0.0001
- p, Sal vs. drug, t-test: Immobility Time Average (min 3-6), Forced Swim Test Day 2 (0.025 mg/kg, 24 hour prophylactic drug): 0.1367
- Immobility on FST Day 2 vs saline (0.025 mg/kg, 24 hours before CFC, female mice): not prophylactically effective when administered 24 h before a stressor; also recorded: did not alter immobility in the FST
- * (significance), Sal vs. drug, Fisher's PLSD: Immobility Time (min 1-6), Forced Swim Test Day 2 [3]: *** (*** p<0.0001)
- * (significance), Sal vs. drug, Fisher's PLSD: Immobility Time Average (min 3-6), Forced Swim Test Day 2 [3]: ** (** p<0.01)
- p, Sal vs. drug, Fisher's PLSD: Immobility Time (min 1-6), Forced Swim Test Day 2 [3]: <0.0001
- p, Sal vs. drug, Fisher's PLSD: Immobility Time Average (min 3-6), Forced Swim Test Day 2 [3]: 0.0046
- p, Sal vs. drug, Dunnett test: Immobility Time (min 1), Forced Swim Test Day 2 [4]: 0.4238
- p, Sal vs. drug, Dunnett test: Immobility Time (min 1-6), Forced Swim Test Day 2 [4]: 0.5537
- p, Sal vs. drug, Dunnett test: Immobility Time (min 2), Forced Swim Test Day 2 [4]: 0.9312
- p, Sal vs. drug, Dunnett test: Immobility Time (min 4), Forced Swim Test Day 2 [4]: 0.9993
- p, Sal vs. drug, Dunnett test: Immobility Time (min 5), Forced Swim Test Day 2 [4]: >0.9999
- p, Sal vs. drug, Dunnett test: Immobility Time (min 6), Forced Swim Test Day 2 [4]: 0.9760
- p, Sal vs. drug, Dunnett test: Immobility Time Average (min 3-6), Forced Swim Test Day 2 [4]: 0.8615
- p, Sal vs. drug, Dunnett test: Immobility Time (min 1), Forced Swim Test Day 2 [5]: 0.9995
- p, Sal vs. drug, Dunnett test: Immobility Time (min 1-6), Forced Swim Test Day 2 [5]: 0.9871
- p, Sal vs. drug, Dunnett test: Immobility Time (min 2), Forced Swim Test Day 2 [5]: 0.2508
- p, Sal vs. drug, Dunnett test: Immobility Time (min 4), Forced Swim Test Day 2 [5]: 0.9994
- p, Sal vs. drug, Dunnett test: Immobility Time (min 5), Forced Swim Test Day 2 [5]: 0.8037
- p, Sal vs. drug, Dunnett test: Immobility Time (min 6), Forced Swim Test Day 2 [5]: 0.8172
- p, Sal vs. drug, Dunnett test: Immobility Time Average (min 3-6), Forced Swim Test Day 2 [5]: 0.9994
- p, Sal vs. drug, Dunnett test: Immobility Time (min 1), Forced Swim Test Day 2 [6]: 0.9998
- p, Sal vs. drug, Dunnett test: Immobility Time (min 1-6), Forced Swim Test Day 2 [6]: 0.9996
- p, Sal vs. drug, Dunnett test: Immobility Time (min 2), Forced Swim Test Day 2 [6]: 0.9999
- p, Sal vs. drug, Dunnett test: Immobility Time (min 4), Forced Swim Test Day 2 [6]: 0.9883
- p, Sal vs. drug, Dunnett test: Immobility Time (min 5), Forced Swim Test Day 2 [6]: 0.9991
- p, Sal vs. drug, Dunnett test: Immobility Time (min 6), Forced Swim Test Day 2 [6]: 0.9991
- p, Sal vs. drug, Dunnett test: Immobility Time Average (min 3-6), Forced Swim Test Day 2 [6]: 0.9994
- p, Sal vs. drug, Dunnett test: Immobility Time (min 1), Forced Swim Test Day 2 [7]: 0.4807
- p, Sal vs. drug, Dunnett test: Immobility Time (min 1-6), Forced Swim Test Day 2 [7]: 0.6589
- p, Sal vs. drug, Dunnett test: Immobility Time (min 2), Forced Swim Test Day 2 [7]: 0.9193
- p, Sal vs. drug, Dunnett test: Immobility Time (min 4), Forced Swim Test Day 2 [7]: 0.9991
- p, Sal vs. drug, Dunnett test: Immobility Time (min 5), Forced Swim Test Day 2 [7]: >0.9999
- p, Sal vs. drug, Dunnett test: Immobility Time (min 6), Forced Swim Test Day 2 [7]: 0.9995
- p, Sal vs. drug, Dunnett test: Immobility Time Average (min 3-6), Forced Swim Test Day 2 [7]: 0.9507
- p, Sal vs. drug, Dunnett test: Immobility Time (min 1), Forced Swim Test Day 2 [8]: 0.9997
- p, Sal vs. drug, Dunnett test: Immobility Time (min 1-6), Forced Swim Test Day 2 [8]: 0.9950
- p, Sal vs. drug, Dunnett test: Immobility Time (min 2), Forced Swim Test Day 2 [8]: 0.9993
- p, Sal vs. drug, Dunnett test: Immobility Time (min 4), Forced Swim Test Day 2 [8]: 0.9955
- p, Sal vs. drug, Dunnett test: Immobility Time (min 5), Forced Swim Test Day 2 [8]: 0.9991
- p, Sal vs. drug, Dunnett test: Immobility Time (min 6), Forced Swim Test Day 2 [8]: 0.9999
- p, Sal vs. drug, Dunnett test: Immobility Time Average (min 3-6), Forced Swim Test Day 2 [8]: 0.9997
- * (significance), Immobility Time (min 1-6) [9]: ** (** p<0.01)
- p, Immobility Time (min 1) [9]: 0.9996
- p, Immobility Time (min 1-6) [9]: 0.0090
- p, Immobility Time (min 3) [9]: 0.9637
- p, Immobility Time (min 4) [9]: 0.8106
- p, Immobility Time (min 5) [9]: 0.8892
- p, Immobility Time (min 6) [9]: 0.6406
- p, Immobility Time Average (min 3-6) [9]: 0.7004
- * (significance), Immobility Time (min 1) [10]: ** (** p<0.01)
- p, Immobility Time (min 1) [10]: 0.0017
- p, Immobility Time (min 1-6) [10]: 0.2188
- p, Immobility Time (min 3) [10]: 0.9250
- p, Immobility Time (min 4) [10]: 0.9750
- p, Immobility Time (min 5) [10]: 0.8877
- p, Immobility Time (min 6) [10]: 0.9994
- p, Immobility Time Average (min 3-6) [10]: 0.9526
- p, Immobility Time (min 1) [11]: 0.9996
- p, Immobility Time (min 1-6) [11]: 0.0673
- p, Immobility Time (min 3) [11]: 0.4888
- p, Immobility Time (min 4) [11]: 0.3257
- p, Immobility Time (min 5) [11]: 0.2856
- p, Immobility Time (min 6) [11]: 0.9218
